Measured values as given in patent EP0429372A1, “2-Azolyl nicotinate derivatives as herbicides” (RHONE-POULENC AGROCHIMIE, priority 1989, dated 1991).

Assays:
Assay type in all cases: in vivo
Digitaria sanguinalis = assay: Example B: post-emergence herbicidal application, pot test
Excerpt: (§1) Dans des pots de 7 x 7 x 8 cm remplis de terre agricole légère, on sème un nombre de graines déterminé en fonction de l'espèce végétale et de la grosseur de la graine.
(§2) On recouvre ensuite les graines d'une couche de terre d'environ 3 mm d'épaisseur et on laisse germer la graine jusqu'à ce qu'elle donne naissance à une plantule au stade convenable. Le stade de traitement pour les graminées est le stade "deuxième feuille en formation ". Le stade de traitement pour les dicotylédones, est le stade "cotylédons étalés, première feuille vraie en développement".
(§3) Les pots sont alors traités par pulvérisation de bouillie en quantité correspondant à une dose volumique d'application de 500 l/ha et contenant la matière active à la concentration désirée.
(§4) La bouille a été préparée de la même manière qu'à l'exemple A.
(§5) Les pots traités sont ensuite placés dans des bacs destinés à recevoir l'eau d'arrosage, en subirrigation, et maintenus pendant 24 jours à température ambiante sous 70 % d'humidité relative.
(§6) Au bout de 24 jours, on mesure un pourcentage (D) de destruction du nombre de pieds dans le pot traité par rapport au nombre de plantes dans les pots non traités (témoin). On mesure, sur les plantes traitées restantes, le pourcentage de réduction de taille (RT) par rapport aux plantes témoin.
(§7) Le pourcentage du volume foliaire non détruit par le produit est donc donné par la formule : [formula]
(§8) Cette valeur A est transformée en notation de 0 à 5 selon l'échelle suivante :
(§9) Les résultats obtenus sont présentés après le tableau A pour des doses d'application de 4000 g/ha.

Solanum nigrum [1] = assay: as above
Excerpt: as §1, §2, §3, §4, §5, §6, §7, §8, §9

Lolium multiflorum = assay: as above
Excerpt: as §1, §2, §3, §4, §5, §6, §7, §8, §9

Sinapis alba = assay: as above
Excerpt: as §1, §2, §3, §4, §5, §6, §7, §8, §9

Ipomea purpurea = assay: as above
Excerpt: as §1, §2, §3, §4, §5, §6, §7, §8, §9

Echinochloa crusgalli = assay: as above
Excerpt: as §1, §2, §3, §4, §5, §6, §7, §8, §9

Solanum nigrum [2] = assay: Example C: selectivity test in major crops, post-emergence application
Excerpt: as §1
as §2, with “formation".” for “formation ".”
as §3
(§10) La bouillie a été préparée de la même manière qu'à l'exemple A.
as §5, §6
(§11) Le pourcentage de volume foliaire non détruit par le produit est donc donné par la formule : [formula]
as §8
(§12) Ainsi, un produit est jugé comme sélectif vis à vis de la culture lorsque la valeur A notée est de 0 ou 1.
(§13) Les résultats obtenus sont présentés dans l'exemple C pour des doses d'application comprises entre 0,5 et 4 kg de matière active par hectare selon les produits.

Zea mays = assay: as above; details: crop (Maïs), dose 2 kg/ha, 24 days, score 0-5, 0 or 1 = selective; further: ranges in brackets are in %
Excerpt: as §1
as §2, with “formation".” for “formation ".”
as §3, §10, §5, §6, §11, §8, §12, §13

Ipomea pupurea = assay: as above
Excerpt: as §1
as §2, with “formation".” for “formation ".”
as §3, §10, §5, §6, §11, §8, §12, §13

Xanthium pennsylvanicum = assay: as above
Excerpt: as §1
as §2, with “formation".” for “formation ".”
as §3, §10, §5, §6, §11, §8, §12, §13

Oryza sativa = assay: as above; details: crop (Riz), dose 2 kg/ha, 24 days, score 0-5, 0 or 1 = selective; further: ranges in brackets are in %
Excerpt: as §1
as §2, with “formation".” for “formation ".”
as §3, §10, §5, §6, §11, §8, §12, §13

Triticum aestivum = assay: as above; details: crop (Blé), dose 2 kg/ha, 24 days, score 0-5, 0 or 1 = selective; further: ranges in brackets are in %
Excerpt: as §1
as §2, with “formation".” for “formation ".”
as §3, §10, §5, §6, §11, §8, §12, §13

Sesbania exaltata = assay: as above
Excerpt: as §1
as §2, with “formation".” for “formation ".”
as §3, §10, §5, §6, §11, §8, §12, §13

Viola tricolor = assay: as above
Excerpt: as §1
as §2, with “formation".” for “formation ".”
as §3, §10, §5, §6, §11, §8, §12, §13

[3] = 4 kg/ha, rated after 24 days, score 0-5 from % leaf volume not destroyed
[4] = weed, dose 1 kg/ha, 24 days, score 0-5

Structure (SMILES)	ACTIVITE DE POST-LEVEE DIG (Digitaria sanguinalis; 4000 g/ha, 576 h)	ACTIVITE DE POST-LEVEE SOL (Solanum nigrum [1]; 4000 g/ha, 576 h)	ACTIVITE DE POST-LEVEE LOL (Lolium multiflorum; 4000 g/ha, 576 h)	ACTIVITE DE POST-LEVEE SIN (Sinapis alba; 4000 g/ha, 576 h)	ACTIVITE DE POST-LEVEE IPO (Ipomea purpurea; 4000 g/ha, 576 h)	ACTIVITE DE POST-LEVEE ECH (Echinochloa crusgalli; 4000 g/ha, 576 h)	further results
CN(C)S(=O)(=O)n1nc(-c2ccc(Cl)cc2Cl)nc1-c1ncccc1C(=O)O [compound 3]	0 (90 à 100)	3 (30 à 50)	0 (90 à 100)	2 (50 à 70)	2 (50 à 70)	0 (90 à 100)	–
CCN(CC)S(=O)(=O)n1nc(-c2ccccc2)nc1-c1ncccc1C(=O)O [compound 4]	3 (30 à 50)	1 (70 à 90)	–	2 (50 à 70)	2 (50 à 70)	3 (30 à 50)	–
CN(C)S(=O)(=O)n1nc(-c2ccccc2)nc1-c1ncccc1C(=O)O [compound 6]	0 (90 à 100)	5 (O à 10)	–	5 (O à 10)	4 (10 à 30)	0 (90 à 100)	ACTIVITE HERBICIDE DE POST LEVEE S O L (Solanum nigrum [2]; 2000 g/ha, 576 h): 5 (O à 10); ACTIVITE HERBICIDE DE POST LEVEE Z E A (Zea mays): 0 (90 à 100); ACTIVITE HERBICIDE DE POST LEVEE I P O (Ipomea pupurea; 2000 g/ha, 576 h): 5 (O à 10); ACTIVITE HERBICIDE DE POST LEVEE X A N (Xanthium pennsylvanicum; 2000 g/ha, 576 h): 4 (10 à 30); ACTIVITE HERBICIDE DE POST LEVEE O R Y (Oryza sativa): 0 (90 à 100); ACTIVITE HERBICIDE DE POST LEVEE T R Z (Triticum aestivum): 0 (90 à 100); ACTIVITE HERBICIDE DE POST LEVEE S E S (Sesbania exaltata; 2000 g/ha, 576 h): 5 (O à 10); ACTIVITE HERBICIDE DE POST LEVEE V I O (Viola tricolor; 2000 g/ha, 576 h): 4 (10 à 30)
CN(C)S(=O)(=O)n1nc(C(C)(C)C)nc1-c1ncccc1C(=O)O [compound 12]	0 (90 à 100)	4 (10 à 30)	0 (90 à 100)	4 (10 à 30)	3 (30 à 50)	0 (90 à 100)	–
O=C(O)c1cccnc1-c1nc(-c2ccccc2)nn1S(=O)(=O)N1CCCC1 [compound 15]	3 (30 à 50)	1 (70 à 90)	3 (30 à 50)	1 (70 à 90)	2 (50 à 70)	3 (30 à 50)	–
COC(=O)c1cccnc1-c1nc(-c2ccccc2)nn1S(=O)(=O)c1ccccc1Cl [compound 24]	0 (90 à 100)	3 (30 à 50)	0 (90 à 100)	3 (30 à 50)	3 (30 à 50)	0 (90 à 100)	–
O=C(O)c1cccnc1-c1n[nH]c(-c2ccccc2)n1 [compound 42, 3 - (3 - carboxy 2 - pyridyl) 5 - phényl 1,2,4 - triazole]	–	–	–	–	–	–	ACTIVITE DE POST-LEVEE LOL (Lolium multiflorum; [3]): 1 (70 à 90); ACTIVITE DE POST-LEVEE SIN (Sinapis alba; [3]): 4 (10 à 30); ACTIVITE DE POST-LEVEE IPO (Ipomea purpurea; [3]): 4 (10 à 30); ACTIVITE DE POST-LEVEE ECH (Echinochloa crusgalli; [3]): 2 (50 à 70)
O=C(O)c1cccnc1-c1n[nH]c(-c2ccc(Cl)cc2Cl)n1 [compound 43]	3 (30 à 50)	3 (30 à 50)	3 (30 à 50)	5 (O à 10)	4 (10 à 30)	4 (10 à 30)	–
O=C(O)c1cccnc1-c1n[nH]c(-c2sc(Cl)c(Cl)c2Cl)n1 [compound 44]	1 (70 à 90)	1 (70 à 90)	0 (90 à 100)	4 (10 à 30)	3 (30 à 50)	2 (50 à 70)	–
O=C(O)c1cccnc1-c1n[nH]c(Cc2ccccc2)n1 [compound 45]	3 (30 à 50)	3 (30 à 50)	2 (50 à 70)	2 (50 à 70)	3 (30 à 50)	3 (30 à 50)	–
O=C(O)c1cccnc1-c1n[nH]c(-c2cccc(Cl)c2)n1 [compound 48]	3 (30 à 50)	1 (70 à 90)	2 (50 à 70)	2 (50 à 70)	3 (30 à 50)	3 (30 à 50)	–
O=C(O)c1cccnc1-c1n[nH]c(-c2cc(Cl)cc(Cl)c2)n1 [compound 50]	2 (50 à 70)	0 (90 à 100)	0 (90 à 100)	0 (90 à 100)	3 (30 à 50)	3 (30 à 50)	–
Cc1ccccc1-c1nc(-c2ncccc2C(=O)O)n[nH]1 [compound 54]	3 (30 à 50)	3 (30 à 50)	3 (30 à 50)	1 (70 à 90)	0 (90 à 100)	2 (50 à 70)	–
O=C(O)c1cccnc1-c1n[nH]c(C=Cc2ccccc2)n1 [compound 67]	2 (50 à 70)	2 (50 à 70)	0 (90 à 100)	2 (50 à 70)	3 (30 à 50)	0 (90 à 100)	–
O=C(O)c1cccnc1-c1n[nH]c(-c2cc(Cl)ccc2Cl)n1 [compound 73]	2 (50 à 70)	3 (30 à 50)	2 (50 à 70)	3 (30 à 50)	3 (30 à 50)	3 (30 à 50)	–
CN(C)S(=O)(=O)n1c(-c2ncccc2C(=O)O)nc2ccccc21 [compound 75, 2-(1-N,N diméthylsulfamoyl 2-benzimidazolyl) 3-carboxy pyridine]	–	–	–	–	–	–	ACTIVITE HERBICIDE DE POST LEVEE S O L (Solanum nigrum [2]; [4]): 5 (O à 10); ACTIVITE HERBICIDE DE POST LEVEE I P O (Ipomea pupurea; weed, post-emergence, dose 1 kg/ha, 24 days, score 0-5): 5 (O à 10); ACTIVITE HERBICIDE DE POST LEVEE X A N (Xanthium pennsylvanicum; [4]): 5 (O à 10); ACTIVITE HERBICIDE DE POST LEVEE S E S (Sesbania exaltata; [4]): 5 (O à 10); ACTIVITE HERBICIDE DE POST LEVEE V I O (Viola tricolor; [4]): 4 (10 à 30); ACTIVITE DE POST-LEVEE DIG (Digitaria sanguinalis; [3]): 0 (90 à 100); ACTIVITE DE POST-LEVEE SOL (Solanum nigrum [1]; [3]): 5 (O à 10); ACTIVITE DE POST-LEVEE SIN (Sinapis alba; [3]): 5 (O à 10); ACTIVITE DE POST-LEVEE IPO (Ipomea purpurea; [3]): 4 (10 à 30); ACTIVITE DE POST-LEVEE ECH (Echinochloa crusgalli; [3]): 0 (90 à 100)
CN(C)S(=O)(=O)n1c(-c2ncccc2C(=O)O)nc2ccccc21 [compound 121]	0 (90 à 100)	5 (O à 10)	–	5 (O à 10)	4 (10 à 30)	3 (30 à 50)	–
